Source: patent US20260242415A1 (priority 2022, published 2026)

What was measured:
[1] = test system: SARS2-S pseudotyped VSV, Delta
[2] = test system: SARS2-S pseudotyped VSV, Omicron BA.1
[3] = test system: SARS2-S pseudotyped VSV, Alpha
[4] = test system: SARS2-S pseudotyped VSV, Omicron BA.2
[5] = test system: SARS2-S pseudotyped VSV, Beta
SARS-CoV-2 spike protein = SARS-CoV-2 spike protein (Severe acute respiratory syndrome coronavirus 2, UniProt P0DTC2); format: binding; parameters: key: Results labeled “−” represent decreased binding; Results labeled “0” represent substantially similar binding; Results labeled “1” represent the original sequence; Results labeled “+” represent about 105-200% binding; Results labeled “++” represent about 200-300% binding; Results labeled “+++” represent about 300-500% binding; Results labeled “++++” represent over about 500% binding
omicron variant = conditions: cited from earlier work

## CC[C@H](C)[C@@H]1NC(=O)[C@H](CCC(N)=O)NC(=O)[C@H](CCC(=O)O)NC(=O)[C@H](CCCNC(=N)N)NC(=O)[C@@H]2CCCN2C(=O)[C@H](CCCNC(=N)N)NC(=O)[C@H](CCCNC(=N)N)NC(=O)[C@H](Cc2ccc(O)cc2)NC(=O)CSC[C@@H](C(=O)NCC(N)=O)NC(=O)[C@H](Cc2ccccc2)NC(=O)[C@H](C(C)C)NC(=O)[C@H](Cc2c[nH]c3ccccc23)NC(=O)[C@H](CC(C)C)NC(=O)[C@H](CO)NC(=O)CNC(=O)[C@H]([C@@H](C)CC)NC(=O)[C@H]([C@@H](C)CC)NC1=O [Compound S1b3inL1]
[1]
  IC50: 3.5 µM
[2]
  IC50: 5.2 µM
[3]
  IC50: 2.6 µM
[4]
  IC50: 3.5 µM
[5]
  IC50: 5.2 µM

## ARPREQIIIGSLWVF [SEQ ID NO: 16]
SARS-CoV-2 spike protein
  binding standardized to SEQ ID NO: 1: −

## RAPREQIIIGSLWVF [SEQ ID NO: 17]
SARS-CoV-2 spike protein
  binding standardized to SEQ ID NO: 1: −

## RRPAEQIIIGSLWVF [SEQ ID NO: 19]
SARS-CoV-2 spike protein
  binding standardized to SEQ ID NO: 1: 0

## RRPREQAIIGSLWVF [SEQ ID NO: 22]
SARS-CoV-2 spike protein
  binding standardized to SEQ ID NO: 1: −

## RRPREQIAIGSLWVF [SEQ ID NO: 23]
SARS-CoV-2 spike protein
  binding standardized to SEQ ID NO: 1: −

## RRPREQIIAGSLWVF [SEQ ID NO: 24]
SARS-CoV-2 spike protein
  binding standardized to SEQ ID NO: 1: −

## RRPREQIIIASLWVF [SEQ ID NO: 25]
SARS-CoV-2 spike protein
  binding standardized to SEQ ID NO: 1: −

## RRPREQIIIGALWVF [SEQ ID NO: 26]
SARS-CoV-2 spike protein
  binding standardized to SEQ ID NO: 1: −

## RRPREQIIIGSAWVF [SEQ ID NO: 27]
SARS-CoV-2 spike protein
  binding standardized to SEQ ID NO: 1: −

## RRPREQIIIGSLAVF [SEQ ID NO: 28]
SARS-CoV-2 spike protein
  binding standardized to SEQ ID NO: 1: −

## RRPREQIIIGSLWVF [Compound S1b3inL1]
SARS-CoV-2 spike protein
  binding standardized to SEQ ID NO: 1: 1

## Sotrovimab
Omicron variant
  fold loss in potency / decrease in activity against omicron: 3 fold
